Test results taken from patent US9821002B2, “Method for alleviating radiation injury with isorhamnetin-3-O-β-D-glucoside” (Sinotai Oncology Associate., Ltd., priority 2015, dated 2017).

How the values were obtained:
BNL CL.2 cells = assay: Mitochondrial membrane potential assay (JC-1) after X-ray irradiation; type: cell-based, mouse; conditions: 5 μM, 2 h pretreatment, X-ray 15 Gy, 120 hours, mean ± SEM
From the text: (§1) Four groups of BNL CL.2 cells (i.e., a normal control group referred to as Normal Control Group 1-A, an X-ray control group referred to as X-Ray Control Group 1-A, and two experimental groups referred to as Experimental Groups 1-A to 2-A), and six groups of NMuMG cells (i.e., a normal control group referred to as Normal Control Group 1-B, an X-ray control group referred to as X-Ray Control Group 1-B, two isorhamnetin groups referred to as Isorhamnetin Groups 1 to 2, and two experimental groups referred to as Experimental Groups 1-B to 2-B), were prepared based on the procedure set forth in “Source and cultivation of cell lines” of “Experimental materials”. BNL CL.2 cells in each group were cultivated using 5 mL of a corresponding medium shown in Table 1 and a 6-cm Petri dish in an amount of 2×10^5 cells per dish. Likewise, NMuMG cells in each group were cultivated using 5 mL of a corresponding medium shown in Table 1 and a 6-cm Petri dish in an amount of 2.5×10^5 cells per dish. The cultivation was conducted in an incubator (37° C., 5% CO2) for 24 hours. […]
(§2) 1 mL of trypsin-EDTA was added so as to detach the cells from the bottom of the Petri dish. […] Mitochondrial membrane potential assay was conducted using BD Accuri™ C6 flow cytometry, and the percentage of mitochondrial membrane potential depolarization (%) was calculated using BD Accuri™ C6 software.

NMuMG cells = assay: as above; type: cell-based, mouse; conditions: 15 μM, 2 h pretreatment, X-ray 10 Gy, 48 hours, mean ± SEM
From the text: as §1, §2

Compound: COc1cc(-c2oc3cc(O)cc(O)c3c(=O)c2O[C@@H]2O[C@H](CO)[C@@H](O)[C@H](O)[C@H]2O)ccc1O [isorhamnetin-3-O-β-D-glucoside]
- Percentage of mitochondrial membrane potential depolarization (BNL CL.2 cells): 16 ± 2.97 %
- Percentage of mitochondrial membrane potential depolarization (NMuMG cells): 30.05 ± 1.07 %
